Data reported in publication PMC12040169 (PLOS Biology, 2025).

experiment: in vitro; details: human, hela cells, % viability

SMILES	viability at 28.5 h, 10 µM [%]
S=C(NCCN1CCCCC1)NCC1CCCO1 (stereo not drawn) [CBK268129]	107
Cc1nnc(NC(=O)Cc2ccc(F)cc2)s1 [CBK287360]	103
CCN(CC)CC(O)Cn1c(-c2cccc([N+](=O)[O-])c2)nc(=S)c2c1CCCC2 (stereo not drawn) [CBK265700]	97.1
COC(=O)c1ccc(NC(=O)c2c(Br)c(Br)c(Br)c(Br)c2C(=O)O)cc1 [CBK261321]	100
c1cnc(OC2CCN(CC3CCCCC3)CC2)c(OCCN2CCOCC2)n1 [CBK082941T]	87.3
O=C(O)COc1ccc(Br)cc1/C=N/Nc1cccc2cccnc12 [CBK262362]	112
COc1ccc(OCCN2CCC(C(=O)NC(c3ccccn3)c3ccccc3OC)CC2)cc1 (stereo not drawn) [CBK147938]	86.3
CCOC(=O)Cc1nnc(-c2cccc(C(F)(F)F)c2)[nH]1 [CBK304385]	81.1
O=C(O)c1cc(NC(=O)c2ccc3c(c2)C(=O)N(Cc2cccnc2)C3=O)cc(C(=O)O)c1 [CBK266761]	108
CC(c1ccc(F)c(F)c1)N(C)C(=O)CN1CCCc2occc2C1 (stereo not drawn) [CBK304456]	82.9
Cc1ccc2nc(C)cc(C(=O)NNC(=O)Nc3ccc([N+](=O)[O-])cc3)c2c1 [CBK266890]	98.8
NCC(NC(=O)c1cnc(-c2ccncc2)s1)C1CCCCC1 (stereo not drawn) [CBK306502C]	104
CC(C)[C@H](CO)Nc1nccnc1-c1ccco1 [CBK037390]	99
O=C(CSc1nnc(-c2ccco2)[nH]1)Nc1cccc(Cl)c1 [CBK293990]	96.7
COc1cccc(CC(=O)N2CCOc3ncccc32)c1 [CBK305235]	98.4
Cc1nn(CC(=O)N(C)C(C)c2ccncn2)c(=O)c2ccccc12 (stereo not drawn) [CBK307669]	89
O=C(Nc1ccc(OC(F)F)cc1)Nc1c(Br)cnc2cccnc12 [CBK107632]	87.8
C/C(=N\NC(=O)CSc1nc2ccccc2n1Cc1ccccc1)c1ccco1 [CBK263180]	118
CCC1CCCCN1C(=O)c1c(Cl)cccc1Cl (stereo not drawn) [CBK081303]	99.3
O=C(OCc1ccccc1)Sc1nnc(-c2ccc([N+](=O)[O-])cc2)o1 [CBK264504]	91.3
C=C(C)Cn1c(SCC(C)C)nnc1-c1ccc(F)cc1 [CBK200085]	99.9
CC1CCN(CCOCC(O)CNS(=O)(=O)O)CC1 (stereo not drawn) [CBK261454N]	124
O=C1CCC(=O)N1CCOc1nccnc1-c1ccc2c(c1)OCO2 [CBK106698]	92.3

SMILES	viability at 28.5 h, 10 µM [%]
CCc1c(C)nc2nnc(NC(=O)C(F)(F)F)n2c1O [CBK020762]	102
CCOC(=O)N1CCC(NS(=O)(=O)c2ccc(C)c([N+](=O)[O-])c2)CC1 [CBK045468]	85.8
CC(C)(C)OC(=O)N[C@@H](Cc1ccccc1)CN(Cc1ccccc1)Cc1ccc(S(=O)(=O)N2CCOC2=O)cc1 [CBK028952]	86.1
CC(C)C(=O)Nc1c(-c2ccccc2)cnc2ncccc12 [CBK083713]	94.8
Cc1ccccc1C(=O)Nc1cccc(NC(=S)NC(=O)c2cccs2)c1 [CBK263895]	93.1
COc1ccc(C(=O)CCC(=O)Nc2cccnc2)c(OC)c1 [CBK266923]	105
FC(F)(F)c1cnc(Oc2ccc(-n3ccnc3)cc2)c(Cl)c1 [CBK161625]	90.9
c1ccc(CC(Cc2nc3ccccc3[nH]2)c2nc3ccccc3[nH]2)cc1 (stereo not drawn) [CBK150452]	107
CCN(CC)C(=O)CN1CCN(c2nccnc2OCC2COc3ccccc3O2)CC1 (stereo not drawn) [CBK082803T]	96.5
Cc1cnn(CC(=O)N2CC[C@H]3NC(=O)c4ccccc4OCCCCC[C@H]3C2)c1 [CBK292010]	107
COc1ccc(CNC2CCCc3ccccc32)c(OC)c1C (stereo not drawn) [CBK025778G]	77.6
O=C(CN1CCN(Cc2ccccc2)CC1)Nc1ccc(C(F)(F)F)cc1Cl [CBK074781]	103
O=C(O)C1CSC(c2ccccc2)N1 (stereo not drawn) [CBK261008]	114
O=S(=O)(c1ccc(F)cc1)N1CCCC(c2nccnc2-c2ccc(F)cc2)C1 (stereo not drawn) [CBK286136]	117
CCCCNc1cc(C)nc2c(-c3ccccc3)cnn12 [CBK287792]	92.1
CCNC(=O)Nc1cc2cccnc2nc1-c1cc(F)cc(F)c1 [CBK070638]	97
O=C1CC[C@@H](NCc2cccs2)[C@H](c2cc(F)cc(F)c2)N1 [CBK283129]	95.5
O=C1CCCC2=C1C(c1ccc(OCc3ccccc3)cc1)c1c([nH][nH]c1=O)N2 (stereo not drawn) [CBK288149]	92.1
O=C(Nc1scc(-c2ccc(-c3ccccc3)cc2)c1C(=O)O)c1ccco1 [CBK266156]	108
CC(C)(C)OC(=O)N1CCN(c2nccnc2OCCO)CC1 [CBK001869]	119
Cc1ccsc1C(=O)N1CCC(c2n[nH]c3ncccc23)CC1 [CBK284910]	92.2
Cc1c(Cc2ccccc2)sc(NC(=O)c2cccnc2)c1C(N)=O [CBK269851]	101
Cc1[nH]c2ccccc2c1/C=N/c1ccc(S(N)(=O)=O)cc1 [CBK261352]	96

SMILES	viability at 28.5 h, 10 µM [%]
CC(=O)c1cccc(NC(=O)Cn2nc(C)ccc2=O)c1 [CBK304653]	101
O=C(NCc1ccc(Cl)cc1)N1CCN(c2ccccc2)CC1 [CBK155193]	97.9
CC(NC(=O)N1CCN(c2ccccc2)CC1)c1ccccc1 (stereo not drawn) [CBK155207]	99.3
Cc1c(F)cccc1CN(CC(C)(C)CN)C(=O)Nc1ccc2c(c1)OCO2 [CBK002486C]	87.9
CCOc1ccc(-c2ccnc(N3CCC(N(C)C)C3)n2)cc1C(=O)O (stereo not drawn) [CBK307241]	95
CCCNC(=O)c1cc(C2CCCN(Cc3ccc(F)cc3)C2)no1 (stereo not drawn) [CBK283387]	94
CC(=O)Oc1ccc(C(=O)Nc2ccc3c(c2)C(=O)N(CCC(=O)O)C3=O)cc1 [CBK265997]	105
CN(C(=O)CN1CCN(c2cc(-c3ccsc3)ncn2)CC1)c1ccccc1 [CBK091129]	99.7
Cc1ccc(C2(CN3CCN(CC4CCOC4)CC3)CC2)cc1 (stereo not drawn) [CBK282479]	86.1
O=C(O)Cn1nnc(-c2ccc(C(=O)O)cc2)n1 [CBK267926]	85
O=c1n(CC2CCCCC2)c2ccccc2n1S(=O)(=O)c1ccc2ccccc2c1 [CBK106527]	92.5
CCOC(=O)c1c(NC(=O)NCc2cccnc2)sc2c1CCC2 [CBK307585]	87.3
NS(=O)(=O)c1ccc(-c2ccc(/C=C3/SC(=S)N(C4CCCCC4)C3=O)o2)cc1 [CBK263127]	88
CC(C)=NNC(=O)CSc1nc(N2CCOCC2)c2ccccc2n1 [CBK009114]	85.2
O=C(Nc1ccc2oc(-c3ccccc3)nc2c1)C1CCCO1 (stereo not drawn) [CBK107724]	84.1
CC1CCc2c(sc3ncnc(NCC(=O)N4CCCC4)c23)C1 (stereo not drawn) [CBK306079]	103
c1cncc(COc2cc(N3CCCC3)ncn2)c1 [CBK115894]	96.9
Nc1nc2sc3c(c2cc1C(=O)N1CCOCC1)CCCC3 [CBK022399]	96.1
CCC1CCCCN1C(=O)c1cccc(C)n1 (stereo not drawn) [CBK076750]	92.4
O=C(NC1CCS(=O)(=O)C1)c1cnc2c(OC(F)(F)F)cccc2c1O (stereo not drawn) [CBK304323]	99.7
COc1ccccc1CN(CCCn1ccnc1)Cc1ccoc1 [CBK283123]	97.2
Cn1ccnc1CN1CCCN(C(=O)c2cccc(C#N)c2)CC1 [CBK303998]	85.2
CC(C)Cn1cncc1CNC(=O)Nc1ccc2[nH]nnc2c1 [CBK306549]	91.9

SMILES	viability at 28.5 h, 10 µM [%]
O=C(NCCN1CCOCC1)c1nnc(C(=O)Nc2cccc(Cl)c2)s1 [CBK294405]	93.9
Cc1ccc(-c2nc3ncc(C#N)c(N)n3n2)cc1 [CBK288153]	106
CS(=O)(=O)c1ccc(-c2cnc(N)c3ncccc23)cc1 [CBK067593]	90.5
Cc1ccc(C(=O)NCc2ccc3c(c2)CCO3)c(N2CCOCC2)n1 [CBK106202]	88.8
COCCNc1nc(-c2ccoc2)cn2ccnc12 [CBK066416]	104
CC(=O)c1cnc2nc(-c3cccnc3)nn2c1C [CBK287859]	112
IC1COC(c2ccccc2)OC1 (stereo not drawn) [CBK021109]	110
O=C(CCCn1cc([N+](=O)[O-])cn1)Nc1cc(C(F)(F)F)ccc1Cl [CBK293987]	108
CCCNC(=O)C1(Cc2ccccc2-c2ccccc2)CCN(C(=O)c2ccccc2)CC1 [CBK286275]	89.3
CC(=O)Nc1cccc(/C(C)=N/NC(=O)c2ccc(CN3CCOCC3)cc2)c1 [CBK262746]	95.4
Cn1c(CNc2ccccc2[N+](=O)[O-])c(C#N)c2ccccc21 [CBK115324]	98.1
CC1=NN(c2ccc(S(N)(=O)=O)cc2)C(=O)/C1=C\c1ccc(-c2cc([N+](=O)[O-])ccc2C)o1 [CBK263460]	106
COCCc1noc(CC2CCN(c3ccc(Cl)c(C#N)n3)CC2)n1 [CBK304177]	97.5
CN(C)CCN(C)c1nc(-c2ccc3[nH]ccc3c2)cn2ccnc12 [CBK066276]	94.4
Cc1ccc(S(=O)(=O)Nc2ccsc2C(=O)Nc2ccc(F)cc2)cc1 [CBK004571]	91
c1ccc2c(CNCc3ccc4c(c3)OCO4)c[nH]c2c1 [CBK262159]	89.5
O=C(N[C@@H]1COCC[C@@H]1OCC1CC1)c1cccc2c1NCCC2 [CBK307227]	102
COc1ccc(C(=O)N2CCC3(CCCN(C(=O)CC4NC(=O)NC4=O)C3)C2)cc1OC (stereo not drawn) [CBK137082]	93.7
COCC1CCN(C(=O)Nc2ccc(F)c(N3CCCNC3=O)c2)C1 (stereo not drawn) [CBK305487]	100
CC(=O)Nc1ccc(S(=O)(=O)Nc2ccc(C(=O)Nc3ccc(F)cc3)cc2)cc1 [CBK050401]	111
NCCCOc1cncc(N2CCCC2)n1 [CBK115603]	96.8
